According to ChEMBL document CHEMBL3228010, “Potential antitumor agents. 29. Quantitative structure-activity relationships for the antileukemic bisquaternary ammonium heterocycles” (J Med Chem, 1979):

Legend:
L1210 [1] = test: Antitumor activity against mouse L1210 cells […] in ip dosed C3H X DBA2 F1 hybrid mouse on day 0 and dosed at LD10 level once daily on days 1 to 5 assessed as increase in life span relative to control; format: functional
Bos taurus = organism: Bos taurus; test: Displacement of ethidium from calf thymus DNA by fluorimetric method
Mus musculus = test: Toxicity in ip dosed C3H X DBA2 F1 hybrid mouse […] with mouse L1210 cells on day 0 and dosed once daily on days 1 to 5 measured after 50 days; format: organism-based; settings: in vivo, 1200 h
L1210 [2] = test: Antitumor activity against mouse L1210 cells […] in ip dosed C3H X DBA2 F1 hybrid mouse on day 0 and dosed once daily on days 1 to 5 assessed as increase in life span relative to control; format: functional
[3] = Lipophilic-hydrophilic balance, Rm of the compound by partition chromatography; format: physicochemical
[4] = Displacement of ethidium from poly[d(A-T)]-poly[d(A-T)] DNA by fluorimetric method
[5] = Displacement of ethidium from poly[d(G-C)]-poly[d(G-C)] DNA (unknown origin) by fluorimetric method

Row | Structure (SMILES) | log(ILSmax) (L1210 [1]) | C50 (Bos taurus) [µM] | LD10 (Mus musculus) [mg/kg] | D40 (L1210 [2]) [mg/kg] | Rm [3] | C50 [4] [µM] | C50 [5] [µM]
1 | C[n+]1ccc(Nc2ccc(NC(=O)c3ccc(Nc4cc[n+](C)c5cc([N+](=O)[O-])ccc45)cc3)cc2)cc1.Cc1ccc(S(=O)(=O)[O-])cc1.Cc1ccc(S(=O)(=O)[O-])cc1 | 2.02 | 0.69 | 27 | 3 | 0.15 | 0.2 | 1.3
2 | C[n+]1cccc(NC(=O)c2ccc(NC(=O)c3ccc(C(=O)Nc4ccc(C(=O)Nc5ccc[n+](C)c5)c5ccccc45)cc3)cc2)c1.Cc1ccc(S(=O)(=O)[O-])cc1.Cc1ccc(S(=O)(=O)[O-])cc1 | 1.65 | 2.2 | 75 | 72 | 0.08 | 2.3 | 2.6
3 | C[n+]1cccc(NC(=O)c2ccc(NC(=O)c3ccc(C(=O)Nc4ccc(N/N=N/c5ccc(C(=N)N)cc5)cc4)cc3)cc2)c1.Cc1ccc(S(=O)(=O)O)cc1.Cc1ccc(S(=O)(=O)[O-])cc1 | 2.1 | 0.48 | 35 | 6 | -0.77 | 0.22 | 0.64
4 | Cc1cc(Nc2ccc(NC(=O)c3ccc(C(=O)Nc4ccc(C(=O)Nc5ccc[n+](C)c5)cc4)cc3)cc2)nc(N)n1.I.[I-] | 2 | 0.39 | 19 | 10 | -0.3 | 0.27 | 0.49
5 | C/C(=N\NC(=N)N)c1ccc(NC(=O)c2ccc(Nc3cc[n+](C)c4cc(N)ccc34)cc2)cc1.Cc1ccc(S(=O)(=O)O)cc1.Cc1ccc(S(=O)(=O)[O-])cc1 | 2.2 | 0.53 | 31 | 4 | -0.36 | 0.19 | 1
6 | CC[n+]1cccc2cc(NC(=O)c3ccc(-c4ccc(-c5ccc(-c6ccc(C(=O)Nc7ccc8c(ccc[n+]8CC)c7)cc6)cc5)cc4)cc3)ccc21.Cc1ccc(S(=O)(=O)[O-])cc1.Cc1ccc(S(=O)(=O)[O-])cc1 | 2.16 | 0.3 | 31 | 10.5 | -0.1 | 0.18 | 0.61
7 | C[n+]1ccc(Nc2ccc(NC(=O)c3ccc(Nc4cc[n+](C)c5cc(N)ccc45)cc3)cc2)cc1.[Br-].[Br-] | 2.11 | 0.68 | 11 | 2 | 0.08 | 0.23 | 1.4
8 | C[n+]1ccc(Nc2ccc(NC(=O)/C=C/c3ccc(C(=O)Nc4ccc(Nc5cc[n+](C)cc5)c(N)c4)cc3)cc2N)cc1.Cc1ccc(S(=O)(=O)[O-])cc1.Cc1ccc(S(=O)(=O)[O-])cc1 | 2.3 | 1.5 | 6.7 | 1.4 | 0.04 | 0.08 | 1.5
9 | COc1cc(C(=O)Nc2ccc(C(=O)Nc3ccc[n+](C)c3)cc2)ccc1C(=O)Nc1ccc(C(=O)Nc2ccc[n+](C)c2)cc1.Cc1ccc(S(=O)(=O)[O-])cc1.Cc1ccc(S(=O)(=O)[O-])cc1 | 1.72 | 0.64 | 18 | 10.3 | 0.23 | 0.64 | 1.51
10 | CC[n+]1ccc(Nc2ccc(NC(=O)c3ccc(Nc4cc[n+](CC)c5ccccc45)cc3)cc2)cc1.[Br-].[Br-] | 2.07 | 2 | 15 | 2.8 | 0.54 | 0.19 | 3.1
11 | Br.C/C(=N\NC(=N)N)c1ccc(NC(=O)c2ccc(Nc3cc[n+](C)c4ccc(N)cc34)cc2N)cc1.[Br-] | 2.25 | 0.51 | 40 | 1.7 | -0.41 | 0.21 | 0.78
12 | C[n+]1ccc(Nc2ccc(C(=O)Nc3ccc(Nc4c5ccccc5[n+](C)c5cc(N)ccc45)cc3)cc2)cc1.[Cl-].[Cl-] | 2.23 | 0.11 | 37 | 2 | 0.47 | 0.06 | 0.16
13 | C[n+]1ccc(Nc2ccc(NC(=O)c3ccc(/C=C/C4=NCCCN4)cc3)cc2)c2cc(N)ccc21.Cc1ccc(S(=O)(=O)O)cc1.Cc1ccc(S(=O)(=O)[O-])cc1 | 1.9 | 0.65 | 7 | 2 | 0.17 | 0.35 | 0.87
14 | C[n+]1ccc(Nc2ccc(NC(=O)/C=C/c3ccc(Nc4cc[n+](C)c5ccccc45)cc3)cc2)cc1.[Br-].[Br-] | 2.22 | 0.38 | 22 | 1.3 | 0.28 | 0.15 | 0.71
15 | C[n+]1cc(-c2ccc(NC(=O)c3ccc(Nc4cc[n+](C)c5ccccc45)cc3)cc2)c(N)nc1N.Cc1ccc(S(=O)(=O)[O-])cc1.Cc1ccc(S(=O)(=O)[O-])cc1 | 2.27 | 1.24 | 20 | 3.5 | -0.01 | 0.22 | 2.73
16 | COc1cccc2c(Nc3ccc(C(=O)Nc4ccc(Nc5cc[n+](C)cc5)cc4)cc3)cc[n+](C)c12.[Br-].[Br-] | 2.14 | 0.76 | 6 | 0.3 | 0.3 | 0.16 | 1.62
17 | C[n+]1ccc(Nc2ccc(NC(=O)c3ccc(Nc4c(-c5ccccc5)c[n+](C)c5ccc(N)cc45)cc3)cc2)cc1.[Br-].[Br-] | 1.78 | 0.39 | 22 | 10 | 0.65 | 0.15 | 0.63
18 | C[n+]1ccc(Nc2ccc(C(=O)Nc3ccc(Nc4cc[n+](C)c5ccc(N)cc45)c(N)c3)cc2)cc1.Cc1ccc(S(=O)(=O)[O-])cc1.Cc1ccc(S(=O)(=O)[O-])cc1 | 2.03 | 1.58 | 9 | 1.1 | -0.15 | 0.25 | 2.68
19 | CC[n+]1ccc(Nc2ccc(NC(=O)c3ccc(Nc4cc(C)[n+](CC)c5ccc(N)cc45)cc3N)cc2)cc1.[I-].[I-] | 1.86 | 0.5 | 20 | 7.2 | 0.34 | 0.31 | 1.17
20 | C[n+]1ccc(Nc2ccc(C(=O)Nc3ccc(Nc4cc[n+](C)c5ccc(N)cc45)cc3)c(N)c2)cc1.[Br-].[Br-] | 2.43 | 0.6 | 20 | 1 | -0.3 | 0.15 | 0.91
21 | C[n+]1cccc2ccc(NC(=O)c3ccc(-c4ccc(-c5ccc(-c6ccc(C(=O)Nc7ccc8ccc[n+](C)c8c7)cc6)cc5)cc4)cc3)cc21.Cc1ccc(S(=O)(=O)[O-])cc1.Cc1ccc(S(=O)(=O)[O-])cc1 | 1.85 | 0.17 | 52 | 20 | -0.57 | 0.14 | 0.28
